# Measurements as given in US6960611B2, “Sulfonyl-containing 2,3-diarylindole compounds, methods for making same, and methods of use thereof” (Institute of Materia Medica, priority 2002, dated 2005).
# Tests used:
# [1] = tested on: carrageenan-induced foot pad edema; assay: Rat carrageenan-induced foot pad edema assay; type: in vivo; conditions: 10 mg/kg oral
# Description: Male Sprgue-Dawley rats (190-220 g ) were fasted with free access to water at least 16 h prior experiments. The rats were dosed orally with a 1 ml suspension of test compound in vehicle (0.5% methyl cellulose and 0.025% Tween-20) or with vehicle alone. One hour later a subplantar injection of 0.1 ml of 1% solution of carageenan in 0.9% strile saline was administered to the right hind foot pad. Paw volume was measured with a displacement plethysmometer 2, 3, and 4 h after carrageenan injection.
# COX-2 = target: T1, COX-2 (Mus musculus, UniProt Q05769); assay: COX-2 assay: PGE2 release (RIA) from LPS-stimulated mouse peritoneal macrophages; type: cell-based, mice; conditions: LPS 1 mg/L 9 h, PGE2 by RIA
# T1 construct: endogenous in cells; host or cells: thioglycollate-elicited peritoneal macrophages of male C57BL-6J mice, stimulated with LPS
# T1 sequence (Q05769 18-604): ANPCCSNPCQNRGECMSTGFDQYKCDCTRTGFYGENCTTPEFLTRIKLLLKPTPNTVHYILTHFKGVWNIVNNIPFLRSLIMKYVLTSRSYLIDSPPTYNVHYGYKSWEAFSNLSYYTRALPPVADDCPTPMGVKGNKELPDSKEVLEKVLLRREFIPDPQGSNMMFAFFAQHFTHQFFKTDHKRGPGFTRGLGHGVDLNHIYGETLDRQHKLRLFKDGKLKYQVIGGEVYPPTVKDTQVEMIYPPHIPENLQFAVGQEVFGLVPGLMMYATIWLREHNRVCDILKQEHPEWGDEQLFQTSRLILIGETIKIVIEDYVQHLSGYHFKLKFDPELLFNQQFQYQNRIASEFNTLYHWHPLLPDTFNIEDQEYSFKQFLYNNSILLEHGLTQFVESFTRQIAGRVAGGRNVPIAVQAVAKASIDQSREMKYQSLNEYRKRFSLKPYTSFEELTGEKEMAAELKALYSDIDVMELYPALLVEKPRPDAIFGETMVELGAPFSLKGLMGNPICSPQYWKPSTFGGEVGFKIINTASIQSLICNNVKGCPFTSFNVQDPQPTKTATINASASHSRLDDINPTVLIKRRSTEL
# Description: Cell culture: Adherent macrophages were harvested from the peritoneal cells of male mice (C57BL-6J, Level 2, from Experiment Animal Center, Academy of Military Medical Science) 3 d after the injection (ip) of brewer thioglycollate medium (5 mL/100 g body weight). […] Cell viability was examined by trypan blue dye exclusion. All incubation procedures were performed with 5% CO2 in humidified air at 37° C.
# COX-2 assay: Macrophages were incubated with test compound at different concentrations or solvent (Me2SO) for 1 h and were stimulated with LPS 1 mg/L for 9 h. The amount of PGE2 in supernatants was measured by RIA. The inhibitory ratio was calculated using the same Formula as in COX-1 assay section. Cs, Ct, Cc refer to PGE2 concentration in supernatants of LPS, test compound, and control groups, respectively.
# Statistical analysis: Data were expressed as the mean±SD of more than three independent experiments. Dose-inhibitory effect curves were fit through “uphill dose response curves, variable slope” using Prism, GraphPad (version 3.00): [formula]
SMILES,edema (paw volume increase) ([1]; 2 h after carrageenan) [%],edema (paw volume increase) ([1]; 3 h after carrageenan) [%],inhibitory percentage of edema ([1]; 3 h after carrageenan) [%],edema (paw volume increase) ([1]; 4 h after carrageenan) [%],inhibitory percentage of edema ([1]; 4 h after carrageenan) [%],melting point [°C],IC50 (COX-2) [nM],inhibitory percentage of edema ([1]; 2 h after carrageenan) [%]
"Cc1ccc(-c2c(-c3ccc(S(C)(=O)=O)cc3)[nH]c3ccccc23)cc1 [Example 65, 2-(4-methylsulfonylphenyl)-3-(4-methylphenyl)indole]",18.5 ± 8.1,35.8 ± 6.8,42.8,27.4 ± 7.1,47.2,197 to 198,0.0896,–
"Cc1ccc(-c2c(-c3ccc(S(C)(=O)=O)cc3)[nH]c3ccccc23)cc1C [Example 67, 2-(4-methylsulfonylphenyl)-3-(3,4-dimethylphenyl)indole]",25.6 ± 13.4,43.9 ± 11,29.8,29.5 ± 12,43.1,206 to 207,0.166,–
"COc1ccc(-c2c(-c3ccc(S(C)(=O)=O)cc3)[nH]c3ccccc23)cc1 [Example 69, 2-(4-methylsulfonylphenyl)-3-(4-methoxyphenyl)indole]",21.6 ± 12.4,43.4 ± 12.1,30.6,37.8 ± 10.7,27.1,218.5 to 220.5,0.022,–
"NS(=O)(=O)c1ccc(-c2[nH]c3ccccc3c2-c2ccc(F)cc2)cc1 [Example 72, 2-(4-aminosulfonylphenyl)-3-(4-Fluorophenyl)indole]",32.8 ± 13.2,36.4 ± 16.9,40.5,35.4 ± 11.3,41.2,228 to 230,5.15,–
"NS(=O)(=O)c1ccc(-c2[nH]c3ccc(Cl)cc3c2-c2ccccc2)cc1 [Example 75, 2-(4-aminosulfonylphenyl)-3-phenyl-5-chloroindole]",35.6 ± 25.5,44.1 ± 31.4,54.8,34 ± 13.6,57.8,297 to 299,0.143,50.1
"CS(=O)(=O)c1ccc(-c2[nH]c3ccc(F)cc3c2-c2ccccc2)cc1 [Example 79, 2-(4-methylsulfonylphenyl)-3-phenyl-5-fluoroindole]",41.8 ± 7.2,47.7 ± 15.8,51.5,31.6 ± 13.3,60.8,243 to 245,5,41.4
"NS(=O)(=O)c1ccc(-c2[nH]c3ccc(F)cc3c2-c2ccccc2)cc1 [Example 80, 2-(4-aminosulfonylphenyl)-3-phenyl-5-fluoroindole]",36.7 ± 7.4,46.6 ± 14,52.2,40.8 ± 17.6,49.4,302 to 304,2,48.6
"Cc1ccc2[nH]c(-c3ccc(S(N)(=O)=O)cc3)c(-c3ccccc3)c2c1 [Example 84, 2-(4-aminosulfonylphenyl)-3-phenyl-5-methylindole]",63.1 ± 18.1,65.6 ± 15.4,32.8,62.4 ± 15.7,22.6,242 to 244,0.0171,40.5
"CS(=O)(=O)c1ccc(-c2c(-c3ccccc3)[nH]c3ccc(Cl)cc23)cc1 [Example 87, 2-phenyl-3-(4-methylsulfonylphenyl)-5-chloroindole]",45.4 ± 9.7,46.9 ± 13.6,23.4,43.4 ± 13.4,27.9,273 to 275,0.27,–
"CS(=O)(=O)c1ccc(-c2c(-c3ccc(Cl)cc3)[nH]c3ccc(Cl)cc23)cc1 [Example 89, 2-(4-chlorophenyl)-3-(4-methylsulfonylphenyl)-5-chloroindole]",58.6 ± 15.8,66.5 ± 13.4,46.1,58.4 ± 13.8,29.9,269 to 271,354,–
"COc1ccc(-c2[nH]c3ccc(Cl)cc3c2-c2ccc(S(C)(=O)=O)cc2)cc1 [Example 90, 2-(4-methoxyphenyl)-3-(4-methylsulfonylphenyl)-5-chloroindole]",44.2 ± 11.9,46.5 ± 5.7,52.4,40.8 ± 5.3,49.6,246 to 248,2.81,38.1
"CS(=O)(=O)c1ccc(-c2c(-c3ccccc3F)[nH]c3ccc(Cl)cc23)cc1 [Example 92, 2-(2-fluorophenyl)-3-(4-methylsulfonylphenyl)-5-chloroindole]",31.3 ± 17,44.6 ± 13.7,54.3,35.4 ± 18.8,56.1,246 to 248,1.76,56.2
"CC(=O)Oc1ccccc1-c1[nH]c2ccc(Cl)cc2c1-c1ccc(S(C)(=O)=O)cc1 [Example 93, 2-(2-acetyloxyphenyl)-3-(4-methylsulfonylphenyl)-5-chloroindole]",49.5 ± 8.2,54.4 ± 8.9,44.3,53.6 ± 11.4,33.5,238 to 240,6,30.7
"CC(=O)Oc1ccc(-c2[nH]c3ccc(Cl)cc3c2-c2ccc(S(C)(=O)=O)cc2)cc1 [Example 94, 2-(4-acetyloxyphenyl)-3-(4-methylsulfonylphenyl)-5-chloroindole]",58.8 ± 11.4,62.1 ± 7.1,36.3,56.4 ± 11.7,30.0,248 to 250,7.16,17.6
"CS(=O)(=O)c1ccc(-c2c(-c3ccccc3)[nH]c3ccccc23)cc1 [Example 100, 2-phenyl-3-(4-methylsulfonylphenyl)indole]",42.8 ± 15.1,54.4 ± 7.9,44.3,43.5 ± 8.9,46.1,239 to 241,0.216,40.1
"NS(=O)(=O)c1ccc(-c2c(-c3ccccc3)[nH]c3ccccc23)cc1 [Example 101, 2-phenyl-3-(4-aminosulfonylphenyl)indole]",36.6 ± 8.9,39.1 ± 15.4,36.1,33.6 ± 16.5,44.2,223 to 225,2.55,–
